The values that follow come from US20230148599A1, “FUNGICIDAL MIXTURES CONTAINING PYRAZOLE DERIVATIVES” (FMC Corporation, priority 2020, published 2023).

Common to all, as to format: in vivo
The test system of one assay is Septoria tritici. In words: Test A: wheat leaf blotch, preventive spray on wheat seedlings. Conditions: 100 = 100% disease control, 0 = no control; for Test A disease control rating / pest or weed control at 50 ppm: 50 ppm. The text has this: (§1) General protocol for preparing test suspensions for Tests A-F: the test compounds were first dissolved in acetone in an amount equal to 3% of the final volume and then suspended at the desired concentration (in ppm) in acetone and purified water (50/50 mix by volume) containing 250 ppm of the surfactant PEG400 (polyhydric alcohol esters). The resulting test suspensions were then used in Tests A-F.
The test solution was sprayed to the point of run-off on wheat seedlings. The following day the seedlings were inoculated with a spore suspension of Septoria tritici (the causal agent of wheat leaf blotch) and incubated in a saturated atmosphere at 24° C. for 48 h, and then moved to a growth chamber at 20° C. for 17 days, after which time disease ratings were made.
(§2) A rating of 100 indicates 100% disease control and a rating of 0 indicates no disease control (relative to the controls). A dash (−) indicates the compound was not tested.

In assay [1] the test system is Puccinia recondita f. sp. tritici. Nature of the assay: Test B: wheat leaf rust, preventive spray on wheat seedlings. Conditions: 100 = 100% disease control, 0 = no control; for Test B disease control rating / pest or weed control at 50 ppm: 50 ppm.
From the text: as §1
The test solution was sprayed to the point of run-off on wheat seedlings. The following day the seedlings were inoculated with a spore suspension of Puccinia recondita f. sp. tritici (the causal agent of wheat leaf rust) and incubated in a saturated atmosphere at 20° C. for 24 h, and then moved to a growth chamber at 20° C. for 7 days, after which time disease ratings were made.
as §2

Assay [2] deals with Blumeria graminis f. sp. tritici. Nature of the assay: Test C: wheat powdery mildew, preventive spray on wheat seedlings. Conditions: 50 ppm, 100 = 100% disease control, 0 = no control.
From the text: as §1
The test suspension was sprayed to the point of run-off on wheat seedlings. The following day the seedlings were inoculated with a spore dust of Blumeria graminis f. sp. tritici, (also known as Erysiphe graminis f. sp. tritici, the causal agent of wheat powdery mildew) and incubated in a growth chamber at 20° C. for 8 days, after which time visual disease ratings were made.
as §2

The test system of the next assay is Phakopsora pachyrhizi. Nature of the assay: Test D: Asian soybean rust, preventive spray on soybean seedlings. The settings on record: 100 = 100% disease control, 0 = no control; for Test D disease control rating / pest or weed control at 50 ppm: 50 ppm.
From the text: as §1
The test solution was sprayed to the point of run-off on soybean seedlings. The following day the seedlings were inoculated with a spore suspension of Phakopsora pachyrhizi (the causal agent of Asian soybean rust) and incubated in a saturated atmosphere at 22° C. for 24 h and then moved to a growth chamber at 22° C. for 8 days, after which time visual disease ratings were made.
as §2

The test system of another assay is Botrytis cinerea. Nature of the assay: Test E: tomato Botrytis, preventive spray on tomato seedlings. The settings on record: 100 = 100% disease control, 0 = no control; for Test E disease control rating / pest or weed control at 50 ppm: 50 ppm.
From the text: as §1
The test suspension was sprayed to the point of run-off on tomato seedlings. The following day the seedlings were inoculated with a spore suspension of Botrytis cinerea (the causal agent of tomato Botrytis) and incubated in a saturated atmosphere at 20° C. for 48 h, and then moved to a growth chamber at 24° C. for 3 days, after which time visual disease ratings were made.
as §2

The subject of the next assay is Alternaria solani. In words: Test F: tomato early blight, preventive spray on tomato seedlings. The settings on record: 100 = 100% disease control, 0 = no control; for Test F disease control rating / pest or weed control at 50 ppm: 50 ppm.
From the text: as §1
The test suspension was sprayed to the point of run-off on tomato seedlings. The following day the seedlings were inoculated with a spore suspension of Alternaria solani (the causal agent of tomato early blight) and incubated in a saturated atmosphere at 27° C. for 48 h, and then moved to a growth chamber at 20° C. for 3 days, after which time visual disease ratings were made.
as §2

[3] abbreviates: Zymoseptoria tritici, 456 h, read-out: Test A disease control rating.
[4] abbreviates: 192 h, read-out: Test B disease control rating.
[5] abbreviates: 216 h, read-out: Test D disease control rating.
Where [6] appears, read: 120 h, read-out: Test E disease control rating.
The mark [7] stands for this setting: 120 h, read-out: Test F disease control rating.

Take `Cc1nn(C)c(Nc2ccccc2[N+](=O)[O-])c1-c1ccc(C#N)cc1F` [compound 134]: in the assay with Septoria tritici, the “Test A disease control rating” value came out at 100%. In addition, in assay [1], the “Test B disease control rating” value is listed as 23%. In addition, the “Test C disease control rating” value in assay [2] was 71%. For the same compound, the “Test D disease control rating” value with Phakopsora pachyrhizi is 0%. For the same compound, in the assay on Botrytis cinerea, the “Test E disease control rating” value was 70%. The “Test F disease control rating” value in the assay with Alternaria solani stood at 0%.
`Cc1cc(F)c(Nc2c(-c3ccc(Cl)cc3Cl)c(C)nn2C)c([N+](=O)[O-])c1` [compound 143]: the “Test A disease control rating” value with Septoria tritici worked out at 99%. Further, in assay [1], the “Test B disease control rating” value is recorded as 100%. The “Test C disease control rating” value in assay [2] worked out at 96%. The “Test D disease control rating” value in the assay on Phakopsora pachyrhizi is given as 87%. In the assay with Botrytis cinerea, the “Test E disease control rating” value turned out to be 99%. Moreover, the “Test F disease control rating” value in the assay on Alternaria solani was 100%.
On to `Cc1nn(C)c(Nc2c(Cl)cc(Cl)cc2[N+](=O)[O-])c1-c1ccc(F)cc1Br` [compound 37], for which the “Test A disease control rating” value with Septoria tritici stood at 100%. In assay [1], the “Test B disease control rating” value worked out at 100%. Moreover, the “Test C disease control rating” value in assay [2] was 98%. In the assay on Phakopsora pachyrhizi, the “Test D disease control rating” value is listed as 0%. The “Test E disease control rating” value in the assay with Botrytis cinerea stood at 88%. For the same compound, the “Test F disease control rating” value in the assay with Alternaria solani is recorded as 78%.
`Cc1cc(F)c(Nc2c(-c3c(F)cc(C#N)cc3F)c(C)nn2C)c([N+](=O)[O-])c1` [compound 200]: the “Test A disease control rating” value in the assay with Septoria tritici came to 99%. For the same compound, the “Test B disease control rating” value in assay [1] was found to be 100%. Also, the “Test C disease control rating” value in assay [2] turned out to be 99%. Moreover, in the assay on Phakopsora pachyrhizi, the “Test D disease control rating” value is reported as 100%. In the assay with Botrytis cinerea, the “Test E disease control rating” value came to 98%. Also, the “Test F disease control rating” value in the assay with Alternaria solani was determined as 100%.
Consider `Cc1nn(C)c(Nc2ccccc2[N+](=O)[O-])c1-c1ccc(F)cc1Br` [compound 139], for which the “Test A disease control rating” value with Septoria tritici is on record as 98%. In assay [1], the “Test B disease control rating” value worked out at 86%. Moreover, the “Test C disease control rating” value in assay [2] was 76%. For the same compound, the “Test D disease control rating” value in the assay on Phakopsora pachyrhizi turned out to be 0%. Further, the “Test E disease control rating” value in the assay on Botrytis cinerea stood at 100%. The “Test F disease control rating” value in the assay with Alternaria solani is listed as 33%.
`COc1ccc(-c2c(C)nn(C)c2Nc2c(Cl)cccc2[N+](=O)[O-])c(C)c1` [compound 35]: the “Test A disease control rating” value in the assay on Septoria tritici amounted to 99%. Further, in assay [1], the “Test B disease control rating” value is recorded as 85%. In addition, the “Test C disease control rating” value in assay [2] was 0%. In addition, the “Test D disease control rating” value in the assay on Phakopsora pachyrhizi turned out to be 0%. Also, the “Test E disease control rating” value in the assay on Botrytis cinerea was determined as 0%. The “Test F disease control rating” value with Alternaria solani was determined as 0%.
For the compound `Cc1nn(C)c(Nc2c(F)cccc2[N+](=O)[O-])c1-c1c(Cl)cccc1Cl` [compound 53], in the assay on Septoria tritici, the “Test A disease control rating” value came to 100%. Moreover, the “Test B disease control rating” value in assay [1] is on record as 100%. The “Test C disease control rating” value in assay [2] is on record as 98%. Also, in the assay on Phakopsora pachyrhizi, the “Test D disease control rating” value stood at 0%. The “Test E disease control rating” value in the assay on Botrytis cinerea was 98%. Moreover, in the assay on Alternaria solani, the “Test F disease control rating” value is on record as 98%.
For the compound `Cc1nn(C)c(Nc2c(F)cc(F)cc2[N+](=O)[O-])c1-c1ccc(F)cc1Br` [compound 51], the “Test A disease control rating” value with Septoria tritici is 100%. Further, the “Test B disease control rating” value in assay [1] worked out at 100%. The “Test C disease control rating” value in assay [2] is 100%. In addition, in the assay on Phakopsora pachyrhizi, the “Test D disease control rating” value was determined as 79%. Further, the “Test E disease control rating” value with Botrytis cinerea was 98%. Besides, the “Test F disease control rating” value in the assay with Alternaria solani is recorded as 99%.
In the case of `COc1ccc(Nc2c(-c3c(F)cccc3F)c(C)nn2C)c([N+](=O)[O-])c1` [compound 87], the “Test B disease control rating” value in assay [1] was found to be 99%. In addition, the “Test C disease control rating” value in assay [2] was 98%. For the same compound, in the assay on Phakopsora pachyrhizi, the “Test D disease control rating” value was found to be 0%. The “Test E disease control rating” value with Botrytis cinerea turned out to be 98%. Moreover, the “Test F disease control rating” value in the assay with Alternaria solani worked out at 93%.
For the compound `COc1ccc(Nc2c(-c3ccc(F)cc3F)c(C)nn2C)c([N+](=O)[O-])c1` [compound 88], in assay [1], the “Test B disease control rating” value amounted to 97%. Also, the “Test C disease control rating” value in assay [2] is listed as 84%. Besides, the “Test D disease control rating” value in the assay on Phakopsora pachyrhizi came out at 0%. In the assay on Botrytis cinerea, the “Test E disease control rating” value was found to be 99%. Further, the “Test F disease control rating” value in the assay with Alternaria solani worked out at 9%.
`Cc1ccc(Nc2c(-c3ccc(F)cc3F)c(C)nn2C)c([N+](=O)[O-])c1` [compound 107]: the “Test B disease control rating” value in assay [1] worked out at 91%. Also, the “Test C disease control rating” value in assay [2] is given as 61%. The “Test D disease control rating” value in the assay with Phakopsora pachyrhizi was 0%. Moreover, the “Test E disease control rating” value in the assay with Botrytis cinerea stood at 98%. In addition, the “Test F disease control rating” value in the assay with Alternaria solani is listed as 0%.
On to `CCc1ccc(Nc2c(-c3ccc(F)cc3Cl)c(C)nn2C)c([N+](=O)[O-])c1` [compound 6], for which the “Test B disease control rating” value in assay [1] worked out at 74%. For the same compound, in assay [2], the “Test C disease control rating” value turned out to be 27%. In addition, in the assay with Phakopsora pachyrhizi, the “Test D disease control rating” value turned out to be 0%. Moreover, the “Test E disease control rating” value in the assay with Botrytis cinerea is 55%. For the same compound, the “Test F disease control rating” value in the assay on Alternaria solani is recorded as 0%.
`COc1ccc(Nc2c(-c3c(F)cc(F)cc3Cl)c(C)nn2C)c([N+](=O)[O-])c1` [compound 89]: in assay [1], the “Test B disease control rating” value is listed as 100%. Moreover, in assay [2], the “Test C disease control rating” value is reported as 99%. Further, the “Test D disease control rating” value in the assay on Phakopsora pachyrhizi is reported as 80%. For the same compound, the “Test E disease control rating” value in the assay on Botrytis cinerea amounted to 99%. The “Test F disease control rating” value with Alternaria solani is 99%.
In the case of `Cc1ccc(Nc2c(-c3c(F)cc(F)cc3Cl)c(C)nn2C)c([N+](=O)[O-])c1` [compound 106], the “Test B disease control rating” value in assay [1] was 100%. For the same compound, the “Test C disease control rating” value in assay [2] was 98%. Also, the “Test D disease control rating” value with Phakopsora pachyrhizi was 0%. For the same compound, in the assay with Botrytis cinerea, the “Test E disease control rating” value is listed as 99%. For the same compound, in the assay on Alternaria solani, the “Test F disease control rating” value is 68%.
For the compound `COc1cc(F)c(Nc2c(-c3ccc(F)cc3F)c(C)nn2C)c([N+](=O)[O-])c1` [Compound 57, 4-(2,4-difluorophenyl)-N-(2-fluoro-4-methoxy-6-nitrophenyl)-1,3-dimethyl-1H-pyrazol-5-amine], the pest or weed control at 50 ppm in the assay on Septoria tritici (setting [3]) came to 100%; in assay [1] (setting [4]) it was 100%; with Phakopsora pachyrhizi (setting [5]), 96%; with Botrytis cinerea (setting [6]), 100%; with Alternaria solani (setting [7]), 100%.
With `Cc1nn(C)c(Nc2c(F)cccc2[N+](=O)[O-])c1-c1ccc(F)cc1F` [Compound 118, 4-(2,4-difluorophenyl)-N-(2-fluoro-6-nitrophenyl)-1,3-dimethyl-1H-pyrazol-5-amine], the pest or weed control at 10 ppm in the assay on Septoria tritici (Zymoseptoria tritici, 456 h, 10 ppm, read-out: Test A disease control rating) amounted to 100%; in assay [1] (192 h, 10 ppm, read-out: Test B disease control rating), 80%; in the assay with Phakopsora pachyrhizi (216 h, 10 ppm, read-out: Test D disease control rating), 0%; in the assay on Botrytis cinerea (120 h, 10 ppm, read-out: Test E disease control rating), 99%; in the assay on Alternaria solani (120 h, 10 ppm, read-out: Test F disease control rating), 60%. Besides, the pest or weed control at 50 ppm with Septoria tritici (setting [3]) came out at 100%; in assay [1] (setting [4]) it was 100%; in the assay with Phakopsora pachyrhizi (setting [5]) it was 0%; with Botrytis cinerea (setting [6]), 100%; with Alternaria solani (setting [7]) it was 99%.
Take `Cc1nn(C)c(Nc2c(Cl)cc(F)cc2[N+](=O)[O-])c1-c1ccc(F)cc1Cl` [Compound 19, N-(2-chloro-4-fluoro-6-nitrophenyl)-4-(2-chloro-4-fluorophenyl)-1,3-dimethyl-1H-pyrazol-5-amine]: the pest or weed control at 50 ppm in the assay with Septoria tritici (setting [3]) was determined as 100%; in assay [1] (setting [4]), 100%; in the assay with Phakopsora pachyrhizi (setting [5]), 98%; in the assay with Botrytis cinerea (setting [6]), 100%; in the assay with Alternaria solani (setting [7]), 99%.
